Reference: patent US20110014204A1, “Cancer Chemoprevention Strategy Based on Loss of Imprinting of IGF2” (priority 2006, published 2011)

Tests used:
[1] = system: aberrant crypt foci (ACF); assay: Azoxymethane (AOM)-induced aberrant crypt foci (ACF) in LOI(+) and LOI(−) mice, NVP-AEW541 by oral gavage; type: in vivo; details: AOM intraperitoneally weekly for 3 weeks, sacrificed at 5 weeks, no inhibitor
Protocol: ACF formation in the colon was induced by AOM intraperitoneal injection, and treatment with NVP-AEW541 was by gastric gavage. Each ACF was formed of 1-4 aberrant crypts, and the number of ACF (# of ACF), the number of total aberrant crypts (# of AC), and the average number of aberrant crypts per ACF were measured.
(A) ACF formation in the colon was induced by AOM i.p. injection, and treatment with NVP-AEW541 was by gastric […]. Each ACF was formed of […] aberrant crypts, and the number of ACF (# of ACF), the number of total aberrant crypts (# of AC), and the average number of aberrant crypts per ACF were measured. LOI(+) AOM mice (dark gray bars), LOI(−) AOM mice (black bars), LOI(+) AOM NVP mice (light gray bars), LOI(−) AOM NVP mice (gray bars). (B) The number of ACF and the number of total aberrant crypts (AC) were corrected by colon surface area (cm^2).
7 week old LOI(+) and LOI(−) littermate controls were treated with AOM at 10 mg/kg body weight intraperitoneally once per week for three weeks, and euthanized 5 weeks after the first dose of AOM. The entire colon was resected from mice after laparotomy, flushed with PBS, filled with 10% buffered formalin (Sigma) for one minute, opened longitudinally, fixed flat between filter paper in formalin at 4° C. overnight, rinsed with PBS, and stained with 0.2% methylene blue in saline. The number of ACF per colon and the number of aberrant crypts per ACF were scored under a light microscopy as previously described Bird, Cancer Lett (1987) 37:147-151). NVP-AEW541 (50 mg/kg) was administered by oral gavage, beginning 1 week before AOM treatment, and NVP-AEW541 was administered 7 days/week, twice a day for 5 weekdays and once a day for 2 weekend days, for 6 weeks until sacrifice.
Because of known strain variation in progression of these lesions, littermate controls were treated with and without LOI, in which the dams were heterozygous for a deletion of the H19 differentially methylated region (DMR); inheritance of a maternal allele lacking the DMR leads to activation of the normally silent allele of Igf2 [LOI(+)], while inheritance of a wild type maternal allele leads to normal imprinting [LOI(−)]. Eight LOI(+) and 14 LOI(−) mice were given AOM intraperitoneally weekly for 3 weeks, sacrificed at 5 weeks after the first dose, and ACF were scored by the method of Bird (1987). Histologic examination of colons from AOM-treated mice confirmed the presence of ACF, with hyperproliferative features including increased mitosis, crypt enlargement and crypt disarray (FIG. 12). […] An additional intriguing finding in AOM-treated LOI(+) mice was cystically dilated crypts lined by enlarged cells with atypical nuclei and that contained necrotic debris, that were reminiscent of sessile serrated adenomas (SSAs) seen in the human colon (FIG. 12). SSAs also show crypt dilatation in association with cytologic atypia and are currently of immense interest for their recently recognized association with colorectal cancer (Snover et al., Am J Clin Pathol (2005) 124:380-391). It will thus be of interest to determine whether SSAs are associated with LOI in the human population.
An additional 9 LOI(+) mice and 9 LOI(−) control littermates were similarly exposed to AOM, adding treatment with NVP-AEW541, an IGF1R inhibitor, at a dose of 50 mg/kg by oral gavage daily for 6 weeks (twice daily except daily on weekends). […] Thus, LOI of lgf2 increases the sensitivity to AOM through an IGF1R-dependent mechanism.
Eight LOI(+) and 14 LOI(−) mice were given AOM intraperitoneally weekly for 3 weeks, sacrificed at 5 weeks after the first dose, and ACFs were scored as described (Bird (1987)). Histologic examination of colons from AOM-treated mice confirmed the presence of ACFs, with hyperproliferative features including increased mitosis, crypt enlargement and crypt disarray (FIG. 14A, B). […]

mouse ES cells = assay: IGF2 stimulation of mouse ES cells, gene expression by real-time RT-PCR, with or without NVP-AEW541; type: cell-based; details: 800 ng/ml mouse Igf2 recombinant protein
Protocol: Mouse ES cells were cultured in defined medium and treated with 800 ng/ml mouse lgf2 protein. Gene expression was analyzed by real-time RT-PCR and normalized to β-actin. Shown is the expression level without (black boxes) and with (gray boxes) the IGF1R inhibitor 3 μM NVP-AEW541 (a pyrrolo-2,3d-pyrimidine), normalized to time 0. The bars indicate standard error.
Mouse ES cells were cultured in defined medium and treated with 800 ng/ml mouse lgf2 protein. Gene expression was analyzed by real-time RT-PCR and normalized to β-actin. Shown is the expression level without (black boxes) and with (pink boxes) the IGF1R R inhibitor 3 μM NVP-AEW541, normalized to time 0. The bar represents standard error.
For IGF2 stimulation, wild type ES cells were isolated as described above, and cultured in ESGRO Complete Basal Medium with 800 ng/ml of mouse Igf2 recombinant protein (StemCell Technologies), with or without 3 μM NVP-AEW541 (Novartis). Cells were washed with PBS twice and RNA was extracted using the RNeasy Kit (QIAGEN) at Oh, 3 h, 6 h, 10 h, and 24 h. Gene expression was assayed by real-time quantitative RT-PCR as described above.
It remained theoretically possible that the observed difference in gene expression simply reflected the over-representation of progenitor cells within the intestinal crypts, rather than a change in cellular gene expression per se. To confirm the latter, mouse embryonic stem (ES) cells were derived and plated in ESGRO Complete Clonal Grade defined medium (Chemicon), which contains no IGF2 and allows growth of undifferentiated ES cells without a feeder layer, which was done with or without 800 ng/ml of mouse Igf2 recombinant protein (StemCell Technologies). Consistent with the microarray experiments, Igf2 induced a 50% and 56% increase in Cdc6 gene expression at 3 and 6 hours, respectively, and 40% and 25% at 10 and 24 hours, respectively (FIG. 3).

Akt/PKB = assay: Microfluidic chamber single cell immunocytochemistry of Akt/PKB activation (phospho-Akt Ser 473) in LOI(+) and LOI(−) MEF cells; type: cell-based, mouse
Protocol: (A) Akt/PKB activation was assayed by single cell immunocytochemistry with an antibody to phosphorylated Akt (Ser 473), in a monolithic 2-layer PDMS chip sealed with a glass coverslip, with defined media delivery controlled by a multiplexed system of valves. Live LOI(+) and LOI(−) MEF cells were stimulated within the microfluidic chips with varying doses of IGF2, with measurements at multiple time points at each IGF2 concentration. […] For each cell type, IGF2 concentration, and time point, at least 200 individual cellular measurements were obtained by digital imaging and analysis. (B) Inhibition of Akt activation by NVP-AEW541. The cells were assayed as in (A) at 60 min after coincubation with 400 ng/ml IGF2 and 3 μM NVP-AEW541 and compared with the unstimulated control. Each bar is based on measurements of >400 cells. Asterisk indicates statistical difference vs LOI(+) control (t test, P<0.001) (C) Single cell analysis of ERK activation by IGF2 in LOI(+) and LOI(−) MEF cells. Erk activation was assayed by single immunocytochemistry within microfluidic chips using an antibody to phosphorylated Erk2 from Upstate (Charlottesville, Va.). LOI(+) cells (gray) and LOI(−) cells (black) were exposed to 400 ng/ml IGF2 for indicated times. […] Error bars represent SD. Standard error bars are completely subsumed by the symbols on this scale. (D) Gene expression levels in mouse embryonic fibroblasts. Quantitative real-time PCR was performed on LOI(+) and LOI(−) MEF cells, with expression normalized to transferring receptor expression. The expression level in LOI(+) samples (black) relative to LOI(−) samples (gray) is shown. The bars indicate standard error.
The immunostaining automation device consists of a monolithic 2-layer PDMS chip sealed with a glass coverslip, fabricated using techniques described previously (Unger et al., Science 288 (2000) 288:113-116). Multiplexing valves were actuated by pressure lines connected to off-device solenoid valves. The chip architecture, performance and validation are all described in a separate manuscript submitted for publication. The glass substrate of the cell culture chamber was coated by introducing 0.1% gelatin (Sigma) into the device for at least 30 minutes, then cells were introduced and allowed to attach for 3 hours. IGF2 (StemCell Technologies) dissolved in cell media was introduced to each chamber at different times so that the end of all stimulation periods coincided. To end the experiment, ice-cold PBS (Invitrogen) was introduced into all chambers followed immediately by 4% paraformaldehyde (Electron Microscopy Systems) for 20 minutes. Cells were permeabilized with 0.1% Triton X-100 (Sigma) for 5 min and blocked with 10% goat serum (Sigma), with PBS washes in between. […] Using custom MATLAB (Mathworks) programs, the images were […], stitched together, and quantified. […] For each cell type and time point, 200-300 cells were analyzed in this manner to ensure statistical significance.
Since both the endogenous IGF2 and IGF2 used in the MEF experiments are susceptible to IGF2 binding protein (IBP)-based inactivation, the dose of an IBP-resistant IGF2 variant was determined producing similar levels of Akt activation. […]

IGF1R = IGF1R (Homo sapiens, UniProt P08069); details: previously estimated; read-out: kD of IGF1R for IGF2; cited from earlier work
IGF1R, sequence (P08069 31-736 limits assumed, species assumed): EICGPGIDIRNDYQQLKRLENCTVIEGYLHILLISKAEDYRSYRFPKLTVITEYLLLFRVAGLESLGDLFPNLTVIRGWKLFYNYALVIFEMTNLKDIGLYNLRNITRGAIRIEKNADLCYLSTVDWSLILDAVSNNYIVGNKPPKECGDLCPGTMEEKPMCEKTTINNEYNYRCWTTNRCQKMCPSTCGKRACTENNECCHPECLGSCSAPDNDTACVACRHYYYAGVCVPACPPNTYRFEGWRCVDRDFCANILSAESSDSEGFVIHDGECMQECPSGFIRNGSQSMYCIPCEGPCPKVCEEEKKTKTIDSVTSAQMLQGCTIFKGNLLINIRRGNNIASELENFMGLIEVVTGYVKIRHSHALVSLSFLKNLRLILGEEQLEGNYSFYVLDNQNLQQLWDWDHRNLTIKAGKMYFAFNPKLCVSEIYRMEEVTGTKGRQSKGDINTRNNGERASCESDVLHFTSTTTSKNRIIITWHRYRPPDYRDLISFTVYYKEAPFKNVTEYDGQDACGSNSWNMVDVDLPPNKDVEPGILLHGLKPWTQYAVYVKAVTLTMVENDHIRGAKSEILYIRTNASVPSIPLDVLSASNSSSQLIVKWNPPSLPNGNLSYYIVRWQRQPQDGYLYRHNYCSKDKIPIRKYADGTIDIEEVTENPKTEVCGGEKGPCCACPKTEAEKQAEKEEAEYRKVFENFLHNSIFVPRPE
IGF1R, sequence (P08069 741-1367 partner limits assumed, species assumed): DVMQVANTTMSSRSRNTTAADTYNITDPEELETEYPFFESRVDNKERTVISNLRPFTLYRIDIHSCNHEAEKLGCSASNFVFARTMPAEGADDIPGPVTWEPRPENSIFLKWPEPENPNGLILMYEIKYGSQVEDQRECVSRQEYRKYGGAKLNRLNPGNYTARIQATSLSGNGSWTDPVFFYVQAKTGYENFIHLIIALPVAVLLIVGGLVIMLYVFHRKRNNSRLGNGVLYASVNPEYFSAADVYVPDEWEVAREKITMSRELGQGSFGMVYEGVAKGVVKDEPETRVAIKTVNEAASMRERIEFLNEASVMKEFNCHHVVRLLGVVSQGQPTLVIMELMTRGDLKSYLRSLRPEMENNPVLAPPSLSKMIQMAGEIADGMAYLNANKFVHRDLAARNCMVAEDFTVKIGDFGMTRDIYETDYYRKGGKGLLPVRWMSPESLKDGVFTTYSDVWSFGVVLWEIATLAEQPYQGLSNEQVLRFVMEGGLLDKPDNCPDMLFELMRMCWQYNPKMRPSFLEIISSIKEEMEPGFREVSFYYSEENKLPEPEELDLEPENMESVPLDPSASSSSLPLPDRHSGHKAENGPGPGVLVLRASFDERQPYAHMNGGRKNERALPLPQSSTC

Row | Molecule | ACF per colon ([1]; LOI(+) mice) [ACF per colon] | ACF per colon ([1]; LOI(−) mice) [ACF per colon] | increase in Cdc6 gene expression (mouse ES cells; 3 hours) [%] | increase in Cdc6 gene expression (mouse ES cells; 6 hours) [%] | increase in Cdc6 gene expression (mouse ES cells; 10 hours) [%] | increase in Cdc6 gene expression (mouse ES cells; 24 hours) [%] | Akt signal at higher IGF2 doses (Akt/PKB; LOI(+) MEF cells, IGF2 doses above 400 ng/ml) | duration of sustained Akt activation (Akt/PKB; LOI(+) MEF cells, lowest IGF2 concentration 400 ng/ml) [min] | return of Akt activation to the baseline (Akt/PKB; LOI(−) MEF cells, IGF2 400, 800 and 1600 ng/ml) [min] | Kd (IGF1R) [nM]
1 | CN=[N+](C)[O-] [AOM, azoxymethane] | 19.8±2.2 | 12.4±0.9 | – | – | – | – | – | – | – | –
2 | insulin-like growth factor 2 [IGF2] | – | – | 50 | 56 | 40 | 25 | progressively more transient and less pronounced | > 120 | ≤ 90 | 1 to 10
